Data taken from PubChem BioAssay AID192 (DTP/NCI, 2004).
Where “and” joins values, the source holds several entries; their conditions need not be identical. Equal entries are not always repeated. Inconclusive results and toxic doses are left out.

System: BDF1 mice, B16 melanoma ip, median survival T/C
Experiment: NCI In Vivo Anticancer Drug Screen. Data for tumor model B16 Melanoma (intraperitoneal) in B6D2F1 (BDF1) mice
Conditions: endpoint: median survival time, higher = longer survival
How it was run: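 Survival or tumor size is measured after treatment of tumor-bearing mice and normalised to the vehicle-treated control group.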

[1] = dose: 3.12 mg/kg/injection, schedule: Q01DX009 (ip), vehicle: saline with Tween-80
[2] = dose: 50.0 mg/kg/injection, schedule: Q04DX003 (ip), vehicle: Klucel (hydroxypropylcellulose) (HPC)
[3] = dose: 100.0 mg/kg/injection, schedule: Q04DX003 (ip), vehicle: Klucel (hydroxypropylcellulose) (HPC)
[4] = dose: 12.5 mg/kg/injection, schedule: Q01DX009 (ip), vehicle: saline
[5] = dose: 25.0 mg/kg/injection, schedule: Q01DX009 (ip), vehicle: saline
[6] = dose: 50.0 mg/kg/injection, schedule: Q01DX009 (ip), vehicle: saline
[7] = dose: 100.0 mg/kg/injection, schedule: Q01DX009 (ip), vehicle: saline with Tween-80
[8] = dose: 200.0 mg/kg/injection, schedule: Q01DX009 (ip), vehicle: saline with Tween-80
[9] = dose: 400.0 mg/kg/injection, schedule: Q01DX009 (ip), vehicle: saline with Tween-80
[10] = dose: 3.12 mg/kg/injection, schedule: Q01DX009 (ip), vehicle: Klucel (hydroxypropylcellulose) (HPC)
[11] = dose: 6.25 mg/kg/injection, schedule: Q01DX009 (ip), vehicle: Klucel (hydroxypropylcellulose) (HPC)
[12] = dose: 12.5 mg/kg/injection, schedule: Q01DX009 (ip), vehicle: Klucel (hydroxypropylcellulose) (HPC)
[13] = dose: 50.0 mg/kg/injection, schedule: Q01DX009 (ip), vehicle: saline with Tween-80

Compound: C=C(C)[C@@H]1CC[C@]2(C)CC[C@]3(C)[C@H](CC[C@@H]4[C@@]5(C)CC[C@H](O)C(C)(C)[C@@H]5CC[C@]43C)[C@@H]12
- T/C (dose: 0.75 mg/kg/injection, schedule: Q01DX009 (ip), vehicle: Klucel (hydroxypropylcellulose) (HPC)): 101 % of control
- T/C (dose: 1.5 mg/kg/injection, schedule: Q01DX009 (ip), vehicle: Klucel (hydroxypropylcellulose) (HPC)): 95 % of control
- T/C (dose: 3.0 mg/kg/injection, schedule: Q01DX009 (ip), vehicle: Klucel (hydroxypropylcellulose) (HPC)): 95 % of control

Compound: COC(C/C=C\C=C\CC/C=C/CC(C)/C=C/C(=C\C(=O)O)CC(=O)O)/C(C)=C\C=C(/C)C(=O)O (configuration not stated)
- T/C (dose: 0.05 mg/kg/injection, schedule: Q01DX009 (ip), vehicle: saline): 108 % of control
- T/C (dose: 0.1 mg/kg/injection, schedule: Q01DX009 (ip), vehicle: saline): 107 % of control
- T/C (dose: 0.2 mg/kg/injection, schedule: Q01DX009 (ip), vehicle: saline): 107 % of control
- T/C (dose: 0.4 mg/kg/injection, schedule: Q01DX009 (ip), vehicle: saline): 94 % of control

Compound: COc1ccc2c(c1OC(C)=O)-c1cc(O)cc3c1C(C2)N(C(=O)CN(CCCl)CCCl)CC3 (configuration not stated)
- T/C [1]: 168 % of control
- T/C (dose: 6.25 mg/kg/injection, schedule: Q01DX009 (ip), vehicle: saline with Tween-80): 187 % of control
- T/C (dose: 6.25 mg/kg/injection, schedule: Q04DX003 (ip), vehicle: DMSO): 103 % of control
- T/C (dose: 12.5 mg/kg/injection, schedule: Q01DX009 (ip), vehicle: saline with Tween-80): 197 % of control
- T/C (dose: 12.5 mg/kg/injection, schedule: Q04DX003 (ip), vehicle: DMSO): 121 % of control
- T/C (dose: 25.0 mg/kg/injection, schedule: Q04DX003 (ip), vehicle: DMSO): 110 % of control
- T/C (dose: 100.0 mg/kg/injection, schedule: Q04DX003 (ip), vehicle: DMSO): 112 % of control

Compound: Cc1nc(C(=O)O)c(C)c(=O)[nH]1
- T/C (dose: 1.56 mg/kg/injection, schedule: Q01DX009 (ip), vehicle: water): 100 % of control
- T/C (dose: 3.13 mg/kg/injection, schedule: Q01DX009 (ip), vehicle: water): 96 % of control
- T/C (dose: 6.25 mg/kg/injection, schedule: Q01DX009 (ip), vehicle: water): 105 % of control
- T/C (dose: 12.5 mg/kg/injection, schedule: Q01DX009 (ip), vehicle: water): 100 % of control

Compound: CCCCCCCCCCCCSC(=O)CCC(=O)O
- T/C [2]: 108 % of control
- T/C [3]: 108 % of control
- T/C (dose: 200.0 mg/kg/injection, schedule: Q04DX003 (ip), vehicle: Klucel (hydroxypropylcellulose) (HPC)): 102 % of control

Compound: CN(C)S(=O)(=O)Nc1cc(Cl)c(NS(=O)(=O)N(C)C)cc1Cl
- T/C (dose: 100.0 mg/kg/injection, schedule: Q01DX009 (ip), vehicle: Klucel (hydroxypropylcellulose) (HPC)): 92 % of control
- T/C (dose: 200.0 mg/kg/injection, schedule: Q01DX009 (ip), vehicle: Klucel (hydroxypropylcellulose) (HPC)): 100 % of control
- T/C (dose: 400.0 mg/kg/injection, schedule: Q01DX009 (ip), vehicle: Klucel (hydroxypropylcellulose) (HPC)): 89 % of control

Compound: Br/C=C/C[N+]12CN3CN(CN(C3)C1)C2
- T/C [4]: 117 % of control
- T/C [5]: 103 % of control
- T/C [6]: 110 % of control

Compound: O=C(O)C1OC1c1ccccc1 (configuration not stated)
- T/C [7]: 97 % of control
- T/C [8]: 102 % of control
- T/C [9]: 100 % of control

Compound: CC1(c2ccc(N(CCCl)CCCl)cc2)NC(=O)NC1=O (configuration not stated)
- T/C (dose: 2.5 mg/kg/injection, schedule: Q01DX009 (ip), vehicle: Klucel (hydroxypropylcellulose) (HPC)): 104 % of control
- T/C (dose: 5.0 mg/kg/injection, schedule: Q01DX009 (ip), vehicle: Klucel (hydroxypropylcellulose) (HPC)): 94 % of control and 111 % of control
- T/C (dose: 18.75 mg/kg/injection, schedule: Q01DX009 (ip), vehicle: Klucel (hydroxypropylcellulose) (HPC)): 119 % of control
- T/C (dose: 20.0 mg/kg/injection, schedule: Q01DX009 (ip), vehicle: Klucel (hydroxypropylcellulose) (HPC)): 120 % of control and 123 % of control
- T/C (dose: 37.5 mg/kg/injection, schedule: Q01DX009 (ip), vehicle: Klucel (hydroxypropylcellulose) (HPC)): 102 % of control
- T/C (dose: 40.0 mg/kg/injection, schedule: Q01DX009 (ip), vehicle: Klucel (hydroxypropylcellulose) (HPC)): 157 % of control and 161 % of control
- T/C (dose: 75.0 mg/kg/injection, schedule: Q01DX009 (ip), vehicle: Klucel (hydroxypropylcellulose) (HPC)): 90 % of control

Compound: Cc1ccc(C(=O)[O][Hg][CH2]C2COC([CH2][Hg][O]C(=O)c3ccc(C)cc3)CO2)cc1 (configuration not stated)
- T/C (dose: 0.09 mg/kg/injection, schedule: Q01DX009 (ip), vehicle: Klucel (hydroxypropylcellulose) (HPC)): 92 % of control
- T/C (dose: 0.19 mg/kg/injection, schedule: Q01DX009 (ip), vehicle: Klucel (hydroxypropylcellulose) (HPC)): 87 % of control
- T/C (dose: 0.39 mg/kg/injection, schedule: Q01DX009 (ip), vehicle: Klucel (hydroxypropylcellulose) (HPC)): 99 % of control
- T/C (dose: 0.78 mg/kg/injection, schedule: Q01DX009 (ip), vehicle: Klucel (hydroxypropylcellulose) (HPC)): 100 % of control
- T/C (dose: 1.56 mg/kg/injection, schedule: Q01DX009 (ip), vehicle: Klucel (hydroxypropylcellulose) (HPC)): 100 % of control
- T/C [10]: 94 % of control and 106 % of control
- T/C [11]: 92 % of control and 107 % of control
- T/C [12]: 94 % of control and 99 % of control
- T/C (dose: 25.0 mg/kg/injection, schedule: Q01DX009 (ip), vehicle: Klucel (hydroxypropylcellulose) (HPC)): 94 % of control and 96 % of control
- T/C (dose: 50.0 mg/kg/injection, schedule: Q01DX009 (ip), vehicle: Klucel (hydroxypropylcellulose) (HPC)): 89 % of control and 94 % of control

Compound: COC(=O)C1CCC[N+](C)(C)C1 (configuration not stated)
- T/C [4]: 100 % of control
- T/C [5]: 100 % of control
- T/C [6]: 91 % of control

Compound: CSc1ccc2c(c1)C(N1CCN(C)CC1)Cc1ccccc1S2 (configuration not stated)
- T/C (dose: 1.56 mg/kg/injection, schedule: Q01DX009 (ip), vehicle: saline with Tween-80): 109 % of control
- T/C [1]: 110 % of control

Compound: O=C/C(Br)=C\c1ccccc1
- T/C (dose: 25.0 mg/kg/injection, schedule: Q04DX003 (ip), vehicle: Klucel (hydroxypropylcellulose) (HPC)): 96 % of control
- T/C [2]: 103 % of control
- T/C [3]: 96 % of control

Compound: NC(=S)N/N=C/c1nccc2ccccc12
- T/C (dose: 6.25 mg/kg/injection, schedule: Q01DX009 (ip), vehicle: saline): 153 % of control
- T/C (dose: 9.4 mg/kg/injection, schedule: Q01DX009 (ip), vehicle: saline with Tween-80): 105 % of control and 122 % of control
- T/C (dose: 9.4 mg/kg/injection, schedule: Q04DX003 (ip), vehicle: saline): 122 % of control
- T/C (dose: 18.8 mg/kg/injection, schedule: Q01DX009 (ip), vehicle: saline with Tween-80): 118 % of control and 122 % of control and 124 % of control
- T/C [5]: 172 % of control
- T/C [6]: 196 % of control
- T/C (dose: 100.0 mg/kg/injection, schedule: Q01DX009 (ip), vehicle: saline): 155 % of control
- T/C (dose: 150.0 mg/kg/injection, schedule: Q04DX003 (ip), vehicle: saline): 152 % of control

Compound: CCCCN(C)/N=N/c1nc[nH]c1C(N)=O
- T/C (dose: 10.0 mg/kg/injection, schedule: Q01DX009 (ip), vehicle: carboxymethylcellulose (CMC)): 111 % of control
- T/C (dose: 20.0 mg/kg/injection, schedule: Q01DX009 (ip), vehicle: carboxymethylcellulose (CMC)): 120 % of control
- T/C (dose: 25.0 mg/kg/injection, schedule: Q01DX009 (ip), vehicle: saline with Tween-80): 109 % of control
- T/C [13]: 112 % of control

Compound: N=C1SCc2ccc3ccccc3c21
- T/C [13]: 99 % of control
- T/C [7]: 97 % of control
- T/C [8]: 91 % of control
- T/C [9]: 89 % of control

Compound: Cc1ccc(C(=O)NCCCOc2ccc(N3C(N)=NC(N)=NC3(C)C)cc2Cl)cc1S(=O)(=O)F
- T/C [4]: 96 % of control
- T/C [5]: 91 % of control

Compound: CN1CC[C@]23c4c5ccc(O)c4O[C@H]2C(=O)CC[C@H]3[C@H]1C5
- T/C (dose: 12.5 mg/kg/injection, schedule: Q01DX005 (iv), vehicle: saline): 86 % of control
- T/C [4]: 94 % of control
- T/C (dose: 25.0 mg/kg/injection, schedule: Q01DX005 (iv), vehicle: saline): 111 % of control
- T/C [5]: 98 % of control
- T/C (dose: 50.0 mg/kg/injection, schedule: Q01DX005 (iv), vehicle: saline): 95 % of control
- T/C [6]: 100 % of control

Compound: C1CCC2[N-]CC3CCCCC3[N-]CC3CCCCC3[N-]CC3CCCCC3[N-]CC2C1.[Cu+2].[O-][Cl+3]([O-])([O-])O (configuration not stated)
- T/C [10]: 153 % of control
- T/C [11]: 161 % of control
- T/C [12]: 164 % of control
